Molecular target: T1, MurG (Cereibacter sphaeroides, UniProt Q3J4M2)
T1 construct: full-length murG in pET28b(+), N-terminal His tag cut with thrombin, E. coli BL21(DE3); Triton X-100 extraction; start encoded by primer MGRPLLL
T1 sequence (Q3J4M2 1-364): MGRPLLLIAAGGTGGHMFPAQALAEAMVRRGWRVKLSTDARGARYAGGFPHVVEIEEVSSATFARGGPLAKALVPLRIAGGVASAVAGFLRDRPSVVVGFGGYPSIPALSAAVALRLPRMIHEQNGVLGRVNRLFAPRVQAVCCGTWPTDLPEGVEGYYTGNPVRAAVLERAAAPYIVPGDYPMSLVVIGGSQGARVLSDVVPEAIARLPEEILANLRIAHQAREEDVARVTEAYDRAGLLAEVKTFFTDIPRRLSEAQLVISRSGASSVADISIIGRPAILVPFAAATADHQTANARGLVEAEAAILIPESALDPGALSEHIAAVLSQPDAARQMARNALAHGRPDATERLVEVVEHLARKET
Assay: liposome-pelleting assay, SDS-PAGE densitometry
Format: binding
Conditions: 6 uM MurG, 4 mM phospholipid, 0.5 uM BSA, 20 mM Tris pH 8.0, room temperature

| % pelleted MurG (10 mol% CL in PC liposomes (mixed membrane)) [%] | % pelleted MurG (10 mol% PGL in PC liposomes (mixed membrane)) [%] | SMILES |
| --- | --- | --- |
| 92 |  | CCCCCCCC/C=C\CCCCCCCC(=O)OC[C@H](COP(=O)(O)OCC(O)COP(=O)(O)OC[C@@H](COC(=O)CCCCCCC/C=C\CCCCCCCC)OC(=O)CCCCCCC/C=C\CCCCCCCC)OC(=O)CCCCCCC/C=C\CCCCCCCC (some centres unmarked) [CL, 1,1′,2,2′-tetra-(9Z-octadecenoyl) cardiolipin] |
|  | 92 | CCCCCCCC/C=C\CCCCCCCC(=O)OC[C@H](COP(=O)(O)OCC(O)CO)OC(=O)CCCCCCC/C=C\CCCCCCCC (mixture of isomers) [PGL, 1,2-di-(9Z-octadecenoyl)-sn-glycero-D-phospho-(1′-rac-glycerol)] |

— article PMC6381277, “Cardiolipin Alters Rhodobacter sphaeroides Cell Shape by Affecting Peptidoglycan Precursor Biosynthesis” (mBio, 2019)
